Data on ten compounds can be found in ChEMBL document CHEMBL5291721, “A preclinical secondary pharmacology resource illuminates target-adverse drug reaction associations of marketed drugs” (Nat Commun, 2023).

One assay concerns the target T1, B1 bradykinin receptor (Homo sapiens, UniProt P46663).
T1 sequence (P46663 whole entry): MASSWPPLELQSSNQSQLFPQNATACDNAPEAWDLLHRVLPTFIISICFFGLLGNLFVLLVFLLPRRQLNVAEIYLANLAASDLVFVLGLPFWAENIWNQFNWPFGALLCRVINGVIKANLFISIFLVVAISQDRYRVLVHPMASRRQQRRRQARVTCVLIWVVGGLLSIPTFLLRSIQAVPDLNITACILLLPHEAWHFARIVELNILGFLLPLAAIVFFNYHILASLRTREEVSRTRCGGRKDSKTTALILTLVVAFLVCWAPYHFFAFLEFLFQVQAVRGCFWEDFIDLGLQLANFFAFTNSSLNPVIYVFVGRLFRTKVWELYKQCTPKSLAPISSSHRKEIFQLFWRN

Another assay has as its target Cannabinoid receptor 1 (Homo sapiens, UniProt P21554). It is filed as functional.
Assay [1] concerns the target T2, Corticotropin-releasing factor receptor 1 (Homo sapiens, UniProt P34998).
T2 sequence (P34998 whole entry): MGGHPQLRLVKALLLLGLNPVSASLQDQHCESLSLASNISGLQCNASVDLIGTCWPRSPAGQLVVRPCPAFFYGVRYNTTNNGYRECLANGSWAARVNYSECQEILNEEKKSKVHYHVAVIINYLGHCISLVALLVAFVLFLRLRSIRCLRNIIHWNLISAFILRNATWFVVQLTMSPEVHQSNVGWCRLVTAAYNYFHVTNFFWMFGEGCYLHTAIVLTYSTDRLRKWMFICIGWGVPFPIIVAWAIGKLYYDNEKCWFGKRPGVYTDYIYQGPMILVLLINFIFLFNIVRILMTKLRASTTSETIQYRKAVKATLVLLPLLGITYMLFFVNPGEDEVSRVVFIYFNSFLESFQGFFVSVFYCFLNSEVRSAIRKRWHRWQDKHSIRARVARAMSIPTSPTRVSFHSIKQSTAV

For assay [2], the target named is T3, Endothelin receptor type B (Homo sapiens, UniProt P24530).
T3 sequence (P24530 whole entry): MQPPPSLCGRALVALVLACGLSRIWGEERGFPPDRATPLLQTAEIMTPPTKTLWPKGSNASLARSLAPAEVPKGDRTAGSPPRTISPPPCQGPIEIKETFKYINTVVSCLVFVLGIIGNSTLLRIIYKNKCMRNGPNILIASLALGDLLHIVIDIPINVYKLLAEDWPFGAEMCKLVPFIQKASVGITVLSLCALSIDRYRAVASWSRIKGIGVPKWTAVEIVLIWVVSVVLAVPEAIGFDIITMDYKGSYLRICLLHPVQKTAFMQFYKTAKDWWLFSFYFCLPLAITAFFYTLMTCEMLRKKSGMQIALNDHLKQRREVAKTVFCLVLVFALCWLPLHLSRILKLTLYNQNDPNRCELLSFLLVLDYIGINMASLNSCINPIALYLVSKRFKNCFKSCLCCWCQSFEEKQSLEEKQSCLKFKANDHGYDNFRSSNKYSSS

Assay [3] concerns the target Gamma-aminobutyric acid type B receptor subunit 1 (Homo sapiens, UniProt Q9UBS5).
Assay [4] deals with 5-hydroxytryptamine receptor 6 (Homo sapiens, UniProt P50406).
For assay [5], the target named is T4, Alpha-1A adrenergic receptor (Homo sapiens, UniProt P35348).
T4 sequence (P35348 whole entry): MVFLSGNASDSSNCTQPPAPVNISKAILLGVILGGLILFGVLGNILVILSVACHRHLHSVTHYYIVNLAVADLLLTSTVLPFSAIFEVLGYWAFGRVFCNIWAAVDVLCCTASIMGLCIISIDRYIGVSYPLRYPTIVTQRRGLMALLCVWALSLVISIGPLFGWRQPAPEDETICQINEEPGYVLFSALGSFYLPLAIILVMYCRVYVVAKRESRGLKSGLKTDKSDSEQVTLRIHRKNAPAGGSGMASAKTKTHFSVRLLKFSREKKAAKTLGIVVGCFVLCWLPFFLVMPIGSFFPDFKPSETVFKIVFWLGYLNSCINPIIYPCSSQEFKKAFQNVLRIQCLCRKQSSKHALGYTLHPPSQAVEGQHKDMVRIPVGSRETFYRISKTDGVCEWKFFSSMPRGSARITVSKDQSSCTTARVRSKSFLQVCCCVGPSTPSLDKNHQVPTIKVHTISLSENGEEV

The target in assay [6] is Beta-1 adrenergic receptor (Homo sapiens, UniProt P08588). It is filed as functional, cell-based.
Assay [7] addresses T5, Androgen receptor (Rattus norvegicus, UniProt P15207).
T5 sequence (P15207 whole entry): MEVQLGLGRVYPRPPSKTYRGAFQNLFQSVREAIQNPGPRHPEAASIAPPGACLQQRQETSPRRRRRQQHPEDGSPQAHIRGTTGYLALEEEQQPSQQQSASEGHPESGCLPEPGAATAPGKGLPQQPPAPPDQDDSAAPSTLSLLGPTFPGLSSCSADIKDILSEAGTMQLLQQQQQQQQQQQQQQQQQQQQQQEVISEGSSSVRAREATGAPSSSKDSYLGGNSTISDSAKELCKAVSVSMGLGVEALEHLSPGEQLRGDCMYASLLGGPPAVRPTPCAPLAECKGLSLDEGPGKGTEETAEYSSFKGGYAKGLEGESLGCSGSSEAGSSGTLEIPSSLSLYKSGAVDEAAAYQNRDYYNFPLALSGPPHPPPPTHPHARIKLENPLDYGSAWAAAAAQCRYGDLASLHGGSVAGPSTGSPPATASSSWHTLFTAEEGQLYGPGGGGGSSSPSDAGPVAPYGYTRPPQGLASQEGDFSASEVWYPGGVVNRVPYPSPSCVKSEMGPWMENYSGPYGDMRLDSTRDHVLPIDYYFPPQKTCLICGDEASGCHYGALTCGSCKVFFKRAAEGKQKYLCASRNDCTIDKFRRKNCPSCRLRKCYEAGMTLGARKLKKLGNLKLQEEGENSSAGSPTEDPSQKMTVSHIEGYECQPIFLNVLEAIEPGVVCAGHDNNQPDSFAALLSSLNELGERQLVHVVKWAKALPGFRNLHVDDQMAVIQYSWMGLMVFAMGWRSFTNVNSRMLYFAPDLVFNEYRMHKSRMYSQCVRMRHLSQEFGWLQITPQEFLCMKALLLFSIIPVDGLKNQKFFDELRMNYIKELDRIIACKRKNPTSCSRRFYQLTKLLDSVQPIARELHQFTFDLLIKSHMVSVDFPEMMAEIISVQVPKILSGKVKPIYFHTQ
It is filed as functional.

The target in assay [8] is Sodium channel protein type 5 subunit alpha (Homo sapiens, UniProt Q14524). Format: functional, cell-based.
Assay [9] concerns the target T5, Androgen receptor.
Also: assay procedure not described here.

Chain of 5-hydroxytryptamine receptor 6 (P50406 whole entry): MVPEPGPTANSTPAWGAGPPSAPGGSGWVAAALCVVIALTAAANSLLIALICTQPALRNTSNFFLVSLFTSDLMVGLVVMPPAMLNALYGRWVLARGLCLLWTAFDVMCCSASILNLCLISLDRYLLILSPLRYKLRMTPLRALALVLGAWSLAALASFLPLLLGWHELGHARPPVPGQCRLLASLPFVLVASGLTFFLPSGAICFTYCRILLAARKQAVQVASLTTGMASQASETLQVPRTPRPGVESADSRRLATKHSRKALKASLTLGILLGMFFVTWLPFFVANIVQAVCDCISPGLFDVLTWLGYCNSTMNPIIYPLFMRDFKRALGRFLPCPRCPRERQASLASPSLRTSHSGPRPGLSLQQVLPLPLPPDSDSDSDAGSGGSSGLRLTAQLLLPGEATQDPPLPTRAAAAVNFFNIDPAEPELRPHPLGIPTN
Chain of Beta-1 adrenergic receptor (P08588 whole entry): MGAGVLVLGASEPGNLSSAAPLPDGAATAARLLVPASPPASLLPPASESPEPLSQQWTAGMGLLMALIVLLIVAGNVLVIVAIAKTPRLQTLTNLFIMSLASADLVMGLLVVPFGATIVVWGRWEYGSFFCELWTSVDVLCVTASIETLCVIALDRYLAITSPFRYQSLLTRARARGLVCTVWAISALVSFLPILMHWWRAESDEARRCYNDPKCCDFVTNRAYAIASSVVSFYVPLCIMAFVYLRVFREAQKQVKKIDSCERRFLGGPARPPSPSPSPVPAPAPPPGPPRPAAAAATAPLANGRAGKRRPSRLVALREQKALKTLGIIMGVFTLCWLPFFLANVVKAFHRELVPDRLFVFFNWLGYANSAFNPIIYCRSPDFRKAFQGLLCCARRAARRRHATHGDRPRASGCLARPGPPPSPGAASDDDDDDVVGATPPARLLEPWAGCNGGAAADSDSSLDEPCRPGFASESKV
Chain of Cannabinoid receptor 1 (P21554 whole entry): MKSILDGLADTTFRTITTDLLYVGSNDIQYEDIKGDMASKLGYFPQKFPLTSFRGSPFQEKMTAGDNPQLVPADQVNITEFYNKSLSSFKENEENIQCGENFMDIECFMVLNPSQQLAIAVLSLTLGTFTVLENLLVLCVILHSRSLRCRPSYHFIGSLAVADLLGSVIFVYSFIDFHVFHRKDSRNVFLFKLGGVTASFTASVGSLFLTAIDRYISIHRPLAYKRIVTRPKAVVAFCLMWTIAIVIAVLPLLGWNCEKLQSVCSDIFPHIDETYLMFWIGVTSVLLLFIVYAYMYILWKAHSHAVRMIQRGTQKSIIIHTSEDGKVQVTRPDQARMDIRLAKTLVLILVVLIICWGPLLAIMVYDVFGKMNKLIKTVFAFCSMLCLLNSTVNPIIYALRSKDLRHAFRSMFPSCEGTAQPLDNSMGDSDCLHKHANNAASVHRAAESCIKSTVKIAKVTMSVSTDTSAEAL
Chain of Sodium channel protein type 5 subunit alpha (Q14524 whole entry): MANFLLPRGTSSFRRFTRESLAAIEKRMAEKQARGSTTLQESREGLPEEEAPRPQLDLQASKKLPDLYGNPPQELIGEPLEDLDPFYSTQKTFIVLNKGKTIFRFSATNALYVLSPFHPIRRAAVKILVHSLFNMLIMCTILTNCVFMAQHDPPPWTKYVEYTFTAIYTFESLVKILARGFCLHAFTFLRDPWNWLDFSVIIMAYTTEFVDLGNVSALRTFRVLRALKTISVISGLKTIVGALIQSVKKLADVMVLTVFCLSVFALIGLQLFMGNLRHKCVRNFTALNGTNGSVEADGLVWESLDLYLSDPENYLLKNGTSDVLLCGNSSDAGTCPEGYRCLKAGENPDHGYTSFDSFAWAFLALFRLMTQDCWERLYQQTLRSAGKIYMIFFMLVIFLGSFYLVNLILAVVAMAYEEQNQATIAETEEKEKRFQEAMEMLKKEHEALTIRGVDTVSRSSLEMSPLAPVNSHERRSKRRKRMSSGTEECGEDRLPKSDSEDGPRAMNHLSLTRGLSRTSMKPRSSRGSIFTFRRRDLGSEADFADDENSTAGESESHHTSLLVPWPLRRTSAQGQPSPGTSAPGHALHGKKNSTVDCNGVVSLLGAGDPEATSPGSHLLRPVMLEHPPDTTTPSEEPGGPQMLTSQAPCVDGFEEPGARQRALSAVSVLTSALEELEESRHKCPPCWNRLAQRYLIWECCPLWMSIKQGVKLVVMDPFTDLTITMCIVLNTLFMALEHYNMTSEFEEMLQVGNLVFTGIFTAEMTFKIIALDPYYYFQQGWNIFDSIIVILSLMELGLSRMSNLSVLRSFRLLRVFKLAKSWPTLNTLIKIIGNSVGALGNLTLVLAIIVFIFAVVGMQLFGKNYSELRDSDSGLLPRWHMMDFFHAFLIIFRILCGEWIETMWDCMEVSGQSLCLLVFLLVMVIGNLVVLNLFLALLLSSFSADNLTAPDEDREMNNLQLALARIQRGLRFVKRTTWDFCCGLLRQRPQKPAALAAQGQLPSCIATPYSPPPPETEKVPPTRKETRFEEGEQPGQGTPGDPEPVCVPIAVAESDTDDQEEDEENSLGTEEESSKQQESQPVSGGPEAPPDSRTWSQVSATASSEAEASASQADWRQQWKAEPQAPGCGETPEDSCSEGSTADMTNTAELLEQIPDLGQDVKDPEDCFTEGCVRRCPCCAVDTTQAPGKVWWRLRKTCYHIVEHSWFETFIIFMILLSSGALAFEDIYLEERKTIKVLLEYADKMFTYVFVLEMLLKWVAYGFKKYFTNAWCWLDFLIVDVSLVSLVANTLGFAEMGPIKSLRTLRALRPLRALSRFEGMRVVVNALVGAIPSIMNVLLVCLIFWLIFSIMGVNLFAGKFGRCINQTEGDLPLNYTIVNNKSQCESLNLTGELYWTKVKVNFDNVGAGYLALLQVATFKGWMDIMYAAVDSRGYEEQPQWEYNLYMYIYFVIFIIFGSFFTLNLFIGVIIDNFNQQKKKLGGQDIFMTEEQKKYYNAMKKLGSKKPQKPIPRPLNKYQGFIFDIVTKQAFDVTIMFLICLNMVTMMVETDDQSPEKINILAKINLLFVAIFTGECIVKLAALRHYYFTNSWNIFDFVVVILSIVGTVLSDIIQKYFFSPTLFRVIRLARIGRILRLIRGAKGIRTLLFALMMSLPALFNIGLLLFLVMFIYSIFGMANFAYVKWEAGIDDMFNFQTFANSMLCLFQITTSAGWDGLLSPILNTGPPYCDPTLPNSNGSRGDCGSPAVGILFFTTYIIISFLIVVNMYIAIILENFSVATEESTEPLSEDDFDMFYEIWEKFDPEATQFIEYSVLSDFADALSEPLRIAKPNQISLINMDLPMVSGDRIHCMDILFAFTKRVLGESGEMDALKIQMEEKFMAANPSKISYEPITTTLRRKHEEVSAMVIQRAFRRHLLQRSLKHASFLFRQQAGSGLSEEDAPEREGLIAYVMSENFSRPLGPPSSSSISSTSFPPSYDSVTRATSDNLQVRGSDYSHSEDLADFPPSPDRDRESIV
Chain of Gamma-aminobutyric acid type B receptor subunit 1 (Q9UBS5 whole entry): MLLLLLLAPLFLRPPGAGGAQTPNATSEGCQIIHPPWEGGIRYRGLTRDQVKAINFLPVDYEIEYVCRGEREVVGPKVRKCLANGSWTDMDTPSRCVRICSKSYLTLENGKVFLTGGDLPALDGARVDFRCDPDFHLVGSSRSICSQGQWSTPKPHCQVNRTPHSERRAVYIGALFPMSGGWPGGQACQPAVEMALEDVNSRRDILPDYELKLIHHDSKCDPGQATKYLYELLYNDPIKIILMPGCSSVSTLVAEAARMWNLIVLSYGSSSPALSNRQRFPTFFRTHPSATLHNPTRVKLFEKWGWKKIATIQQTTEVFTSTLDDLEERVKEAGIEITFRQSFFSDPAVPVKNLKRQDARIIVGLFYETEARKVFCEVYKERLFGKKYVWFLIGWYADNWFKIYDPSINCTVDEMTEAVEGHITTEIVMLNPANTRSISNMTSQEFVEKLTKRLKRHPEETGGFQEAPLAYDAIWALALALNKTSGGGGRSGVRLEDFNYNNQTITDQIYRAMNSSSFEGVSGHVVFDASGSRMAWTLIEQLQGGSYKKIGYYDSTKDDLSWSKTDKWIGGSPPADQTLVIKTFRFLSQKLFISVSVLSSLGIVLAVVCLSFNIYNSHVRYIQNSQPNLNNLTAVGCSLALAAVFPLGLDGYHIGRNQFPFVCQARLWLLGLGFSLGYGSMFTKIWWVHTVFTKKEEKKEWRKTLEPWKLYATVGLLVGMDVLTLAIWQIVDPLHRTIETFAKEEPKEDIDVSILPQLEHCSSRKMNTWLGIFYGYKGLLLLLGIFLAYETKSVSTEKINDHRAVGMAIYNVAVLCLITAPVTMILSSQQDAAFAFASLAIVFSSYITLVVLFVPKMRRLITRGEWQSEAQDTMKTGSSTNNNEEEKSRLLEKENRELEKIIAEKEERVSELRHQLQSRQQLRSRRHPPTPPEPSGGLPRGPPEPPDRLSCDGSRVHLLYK

By AC50 is commonly meant the concentration at which the activity in the assay is half-maximal. A high value points to activity only at high concentration. As for `N=C(N)NC(=O)c1nc(Cl)c(N)nc1N` [AMILORIDE], the half-maximal activity concentration (AC50) on B1 bradykinin receptor was > 10 µM; at Cannabinoid receptor 1 it was > 10 µM; in assay [1] it was > 30 µM; in assay [2], > 30 µM; in assay [3], > 10 µM; in [4], > 10 µM. Also, in assay [5], the AC50 was > 10 µM.
Regarding `C[C@]12CCC(=O)C=C1C=C[C@@H]1[C@@H]2CC[C@@]2(C)[C@H]1CC[C@@]21CCC(=O)O1` [CANRENONE], the AC50 in assay [6] is > 30 µM.
Consider `C[C@]12C=CC(=O)C=C1C(Cl)=C[C@@H]1[C@@H]2[C@@H](O)C[C@@]2(C)[C@H]1CC[C@]2(O)C(=O)CO` [CLOPREDNOL], for which the AC50 on Androgen receptor [7] was > 30 µM.
On to `COc1cccc2c1C(=O)c1c(O)c3c(c(O)c1C2=O)C[C@@](O)(C(=O)CO)C[C@@H]3O[C@H]1C[C@H](N)[C@H](O)[C@H](C)O1` [DOXORUBICIN], for which the AC50 in [8] was > 50 µM.
For the compound `CC(C)(Oc1ccc(Cl)cc1)C(=O)OCCOC(=O)c1cccnc1` [ETOFIBRATE], the AC50 (in assay [6]; at Androgen receptor [7]) was > 30 µM in each case.
As to `C[C@]12C=CC(=O)C=C1CC[C@@H]1[C@@H]2[C@@H](O)C[C@@]2(C)[C@H]1CC[C@]2(O)C(=O)CO` [PREDNISOLONE], the half-maximal activity concentration (AC50) (at B1 bradykinin receptor; in [1]; in [2]) was > 30 µM in each case.
Consider `CCC(=O)c1ccc2c(c1)N(CC(C)N(C)C)c1ccccc1S2` (configuration not stated) [PROPIOMAZINE], for which the AC50 on Androgen receptor [9] is > 30 µM.
On Androgen receptor [9], `CN(C)[C@@H]1C(O)=C(C(=O)NCN2CCCC2)C(=O)[C@@]2(O)C(O)=C3C(=O)c4c(O)cccc4[C@@](C)(O)[C@H]3C[C@@H]12` [ROLITETRACYCLINE] came in with an AC50 of 4.35 µM.
As for `C[C@@H]1CN(c2c(F)c(N)c3c(=O)c(C(=O)O)cn(C4CC4)c3c2F)C[C@H](C)N1` [SPARFLOXACIN], the AC50 in assay [8] is > 50 µM.
On to `Cc1ccc(O)c([C@H](CCN(C(C)C)C(C)C)c2ccccc2)c1` [TOLTERODINE], for which the AC50 (at Cannabinoid receptor 1; in assay [3]; in [4]; in assay [5]) was > 10 µM each time.
